Reference: patent US12679878B2, “CRF2 receptor agonists and their use in therapy” (SANOFI, priority 2020, dated 2026)
Starred links: 1 amine or outer side, 2 acyl side, 3 side chain; linkers in the order of their positions; H or OH if unused. Non-standard residues stand in square brackets, D forms with d. Residues, ends and D or L forms follow the SMILES beside them. Groups on a side chain read outwards from the residue. *: point of attachment. γGlu = O=C(O)[C@H](CCC(=O)[*:2])N[*:1]; Palmitoyl = CCCCCCCCCCCCCCCC(=O)*; AEEA = NCCOCCOCC(=O)O; Aib = CC(C)(N)C(=O)O

molecular target: T1, human CRF2α receptor (Homo sapiens, UniProt Q13324); test: cAMP agonism at human CRF2α receptor in TeloHEAC cells, FA modified peptides (Example 19.9); type: cell-based; conditions: 0% HSA, relative to urocortin 2
T1 construct: expressed in transfected cells; host or cells: TeloHEAC
T1 sequence (Q13324 1-411): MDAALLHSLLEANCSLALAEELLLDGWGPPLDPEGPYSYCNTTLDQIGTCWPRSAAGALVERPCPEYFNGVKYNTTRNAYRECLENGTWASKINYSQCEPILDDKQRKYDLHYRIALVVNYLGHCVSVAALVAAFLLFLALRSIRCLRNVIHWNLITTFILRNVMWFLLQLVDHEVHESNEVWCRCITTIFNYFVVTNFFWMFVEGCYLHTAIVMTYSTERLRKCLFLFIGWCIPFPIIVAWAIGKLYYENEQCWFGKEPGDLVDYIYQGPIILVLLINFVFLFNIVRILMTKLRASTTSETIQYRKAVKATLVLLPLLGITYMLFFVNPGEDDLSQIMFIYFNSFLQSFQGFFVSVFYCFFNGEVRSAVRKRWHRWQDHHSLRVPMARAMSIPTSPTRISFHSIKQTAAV
Experimental: Agonism of compounds for human corticotropin-releasing factor 2α (CRF2α receptor) was determined by a functional assay measuring cAMP modulation upon treatment of TeloHEAC cells stably expressing human CRF2α receptor.
Compounds were dissolved at 0.5 mM in 100% DMSO and serially diluted (1:2) in 100% DMSO for 16 dilutions. 20 nL of each dilution was then transferred to 384-well assay plate using an acoustic droplet ejection instrument. 5 μL of compound buffer (1×HBSS; 20 mM HEPES, 2 mM IBMX, 0% or 0.2% HSA) were then added to each well.
Prior to use, frozen cells were thawed quickly at 37° C. and washed (5 min at 900 rpm) with 20 mL cell buffer (1×HBSS; 20 mM HEPES). Cells were resuspended in cell buffer and adjusted to a cell density of 800.000 cells/ml.
5 μL cells (final dell density: 4000 cells/well) were dispensed in the compound-containing 384-well assay plate and incubated for 30 minutes 37° C.
The CAMP level in treated cells was determined using the Cisbio 62AM4PEC kit according to manufacturer's instruction. Finally, plates were incubated for 1 h at room temperature before measuring the fluorescence ratio between 665/620 nm.
The percent activity value (E %) was calculated by setting 100 nM of urocortin 2 (UCN2) as 100%. The in vitro potency of the compounds was quantified by determining the concentrations that caused 50% activation of maximal response (EC50) relative to urocortin 2.

Q: `CCCCCCCCCCCCCCCC(=O)N[C@@H](CCC(=O)NCCOCCOCC(=O)NCCOCCOCC(=O)NCCCC[C@H](NC(=O)[C@H](CC(C)C)NC(=O)[C@H](CCCCN)NC(=O)[C@@H](NC(=O)[C@@H]1CCCN1C(=O)[C@H](NC(=O)[C@H](CC(=O)O)NC(=O)[C@H](CC(C)C)NC(=O)[C@H](CO)NC(=O)[C@H](CC(C)C)NC(=O)[C@@H](NC(=O)[C@@H](N)[C@@H](C)CC)C(C)C)C(C)C)[C@@H](C)CC)C(=O)N[C@@H](CCC(N)=O)C(=O)N[C@H](C(=O)N[C@@H](CC(C)C)C(=O)N[C@@H](CC(C)C)C(=O)N[C@@H](CCCCN)C(=O)N[C@@H](CCC(N)=O)C(=O)N[C@@H](CCC(=O)O)C(=O)N[C@@H](CCCNC(=N)N)C(=O)N[C@@H](CCC(N)=O)C(=O)N[C@@H](CCCCN)C(=O)N[C@@H](CCCCN)C(=O)NC(C)(C)C(=O)N[C@@H](CCCNC(=N)N)C(=O)N[C@@H](CCC(N)=O)C(=O)N[C@@H](CCCCN)C(=O)N[C@@H](C)C(=O)N[C@@H](CCC(=O)O)C(=O)N[C@@H](CCCCN)C(=O)N[C@@H](CC(N)=O)C(=O)N[C@@H](CCCCN)C(=O)N[C@@H](CCC(N)=O)C(=O)N[C@H](C(=O)N[C@@H](CC(C)C)C(=O)N[C@@H](C)C(=O)N[C@@H](CCC(N)=O)C(=O)N[C@H](C(N)=O)C(C)C)[C@@H](C)CC)[C@@H](C)CC)C(=O)O` [compound 210] (H-IVLSLD[dV]PIKLK([AEEA-AEEA-γGlu-Palmitoyl])QILLKQERQKK[Aib]RQKAEKNKQILAQV-NH2) was tested. Which EC50 did it give?
A: The EC50 was 2.98 nM.

Q: How did the EC50 turn out when `CCCCCCCCCCCCCCCC(=O)N[C@@H](CCC(=O)N[C@@H](CCC(=O)NCCOCCOCC(=O)NCCOCCOCC(=O)NCCCC[C@H](NC(=O)[C@H](CC(C)C)NC(=O)[C@H](CCCCN)NC(=O)[C@@H](NC(=O)[C@@H]1CCCN1C(=O)[C@H](NC(=O)[C@H](CC(=O)O)NC(=O)[C@H](CC(C)C)NC(=O)[C@H](CO)NC(=O)[C@H](CC(C)C)NC(=O)[C@@H](NC(=O)[C@@H](N)[C@@H](C)CC)C(C)C)C(C)C)[C@@H](C)CC)C(=O)N[C@@H](CCC(N)=O)C(=O)N[C@H](C(=O)N[C@@H](CC(C)C)C(=O)N[C@@H](CC(C)C)C(=O)N[C@@H](CCCCN)C(=O)N[C@@H](CCC(N)=O)C(=O)N[C@@H](CCC(=O)O)C(=O)N[C@@H](CCCNC(=N)N)C(=O)N[C@@H](CCC(N)=O)C(=O)N[C@@H](CCCCN)C(=O)N[C@@H](CCCCN)C(=O)NC(C)(C)C(=O)N[C@@H](CCCNC(=N)N)C(=O)N[C@@H](CCC(N)=O)C(=O)N[C@@H](CCCCN)C(=O)N[C@@H](C)C(=O)N[C@@H](CCC(=O)O)C(=O)N[C@@H](CCCCN)C(=O)N[C@@H](CC(N)=O)C(=O)N[C@@H](CCCCN)C(=O)N[C@@H](CCC(N)=O)C(=O)N[C@H](C(=O)N[C@@H](CC(C)C)C(=O)N[C@@H](C)C(=O)N[C@@H](CCC(N)=O)C(=O)N[C@H](C(N)=O)C(C)C)[C@@H](C)CC)[C@@H](C)CC)C(=O)O)C(=O)O` [compound 211] (H-IVLSLD[dV]PIKLK([AEEA-AEEA-γGlu-γGlu-Palmitoyl])QILLKQERQKK[Aib]RQKAEKNKQILAQV-NH2) was run?
A: Its EC50 is 0.94 nM.

Q: `CCCCCCCCCCCCCCCC(=O)N[C@@H](CCC(=O)NCCCC[C@H](NC(=O)[C@H](CC(C)C)NC(=O)[C@H](CCCCN)NC(=O)[C@@H](NC(=O)[C@@H]1CCCN1C(=O)[C@H](NC(=O)[C@H](CC(=O)O)NC(=O)[C@H](CC(C)C)NC(=O)[C@H](CO)NC(=O)[C@H](CC(C)C)NC(=O)[C@@H](NC(=O)[C@@H](N)[C@@H](C)CC)C(C)C)C(C)C)[C@@H](C)CC)C(=O)N[C@@H](CCC(N)=O)C(=O)N[C@H](C(=O)N[C@@H](CC(C)C)C(=O)N[C@@H](CC(C)C)C(=O)N[C@@H](CCCCN)C(=O)N[C@@H](CCC(N)=O)C(=O)N[C@@H](CCC(=O)O)C(=O)N[C@@H](CCCNC(=N)N)C(=O)N[C@@H](CCC(N)=O)C(=O)N[C@@H](CCCCN)C(=O)N[C@@H](CCCCN)C(=O)N[C@@H](CCC(N)=O)C(=O)N[C@@H](CCCNC(=N)N)C(=O)N[C@@H](CCC(=O)O)C(=O)N[C@@H](CCCCN)C(=O)N[C@@H](C)C(=O)N[C@@H](CCC(=O)O)C(=O)N[C@@H](CCCCN)C(=O)N[C@@H](CC(N)=O)C(=O)N[C@@H](CCCCN)C(=O)N[C@@H](CCC(N)=O)C(=O)N[C@H](C(=O)N[C@@H](CC(C)C)C(=O)N[C@@H](C)C(=O)N[C@@H](CCC(N)=O)C(=O)N[C@H](C(N)=O)C(C)C)[C@@H](C)CC)[C@@H](C)CC)C(=O)O` [compound 213] (H-IVLSLD[dV]PIKLK([γGlu-Palmitoyl])QILLKQERQKKQREKAEKNKQILAQV-NH2) was tested. Which EC50 did it give?
A: The EC50 was 4.48 nM.

Q: For `CCCCCCCCCCCCCCCC(=O)N[C@@H](CCC(=O)NCCCC[C@H](NC(=O)[C@H](CC(C)C)NC(=O)CNC(=O)[C@@H](NC(=O)[C@@H]1CCCN1C(=O)[C@H](NC(=O)[C@H](CC(=O)O)NC(=O)[C@H](CC(C)C)NC(=O)[C@H](CO)NC(=O)[C@H](CC(C)C)NC(=O)[C@@H](NC(=O)[C@@H](N)[C@@H](C)CC)C(C)C)C(C)C)[C@@H](C)CC)C(=O)N[C@@H](CCC(N)=O)C(=O)N[C@H](C(=O)N[C@@H](CC(C)C)C(=O)N[C@@H](CC(C)C)C(=O)N[C@@H](CCCCN)C(=O)N[C@@H](CCC(N)=O)C(=O)N[C@@H](CCC(=O)O)C(=O)N[C@@H](CCCNC(=N)N)C(=O)N[C@@H](CCC(N)=O)C(=O)N[C@@H](CCCCN)C(=O)N[C@@H](CCCCN)C(=O)NC(C)(C)C(=O)N[C@@H](CCCNC(=N)N)C(=O)N[C@@H](CCC(=O)O)C(=O)N[C@@H](CCC(N)=O)C(=O)N[C@@H](C)C(=O)N[C@@H](CCC(=O)O)C(=O)N[C@H](C(=O)N[C@@H](CC(N)=O)C(=O)N[C@@H](CCCCN)C(=O)N[C@@H](CCC(N)=O)C(=O)N[C@H](C(=O)N[C@@H](CC(C)C)C(=O)N[C@@H](C)C(=O)N[C@@H](CCC(N)=O)C(=O)N[C@H](C(N)=O)C(C)C)[C@@H](C)CC)[C@@H](C)O)[C@@H](C)CC)C(=O)O` [compound 215] (H-IVLSLD[dV]PIGLK([γGlu-Palmitoyl])QILLKQERQKK[Aib]REQAETNKQILAQV-NH2; N-terminus assumed), which EC50 is on record?
A: The EC50 was 0.15 nM.

Q: `CCCCCCCCCCCCCCCC(=O)N[C@@H](CCC(=O)N[C@@H](CCC(=O)NCCOCCOCC(=O)NCCOCCOCC(=O)NCCCC[C@H](NC(=O)[C@H](CC(C)C)NC(=O)CNC(=O)[C@@H](NC(=O)[C@@H]1CCCN1C(=O)[C@H](NC(=O)[C@H](CC(=O)O)NC(=O)[C@H](CC(C)C)NC(=O)[C@H](CO)NC(=O)[C@H](CC(C)C)NC(=O)[C@@H](NC(=O)[C@@H](N)[C@@H](C)CC)C(C)C)C(C)C)[C@@H](C)CC)C(=O)N[C@@H](CCC(N)=O)C(=O)N[C@H](C(=O)N[C@@H](CC(C)C)C(=O)N[C@@H](CC(C)C)C(=O)N[C@@H](CCCCN)C(=O)N[C@@H](CCC(N)=O)C(=O)N[C@@H](CCC(=O)O)C(=O)N[C@@H](CCCNC(=N)N)C(=O)N[C@@H](CCC(N)=O)C(=O)N[C@@H](CCCCN)C(=O)N[C@@H](CCCCN)C(=O)NC(C)(C)C(=O)N[C@@H](CCCNC(=N)N)C(=O)N[C@@H](CCC(=O)O)C(=O)N[C@@H](CCC(N)=O)C(=O)N[C@@H](C)C(=O)N[C@@H](CCC(=O)O)C(=O)N[C@H](C(=O)N[C@@H](CC(N)=O)C(=O)N[C@@H](CCCCN)C(=O)N[C@@H](CCC(N)=O)C(=O)N[C@H](C(=O)N[C@@H](CC(C)C)C(=O)N[C@@H](C)C(=O)N[C@@H](CCC(N)=O)C(=O)N[C@H](C(N)=O)C(C)C)[C@@H](C)CC)[C@@H](C)O)[C@@H](C)CC)C(=O)O)C(=O)O` [compound 217] (H-IVLSLD[dV]PIGLK([AEEA-AEEA-γGlu-γGlu-Palmitoyl])QILLKQERQKK[Aib]REQAETNKQILAQV-NH2; N-terminus assumed) was tested. Which EC50 did it give?
A: The EC50 was 0.16 nM.
